Assay results as given in patent US8114909B2, “Treating or preventing restless legs syndrome using prodrugs of GABA analogs” (XenoPort, Inc., priority 2003, dated 2012).

Assay: drug release from the sustained release oral osmotic dosage form in artificial gastric fluid
Type: physicochemical
Conditions: release of prodrug from the osmotic sustained release dosage form of Example 1 (700 mg drug composition, one 10 mil passageway)
Experimental: The bilayered arrangements next are coated with a semipermeable wall. The wall-forming composition comprises 100% cellulose acetate having a ˜40% acetyl content. The polymer is dissolved in 100% acetone to make a 4% solid solution. The wall forming composition is sprayed at 26 grams/min onto and around the bilayer cores in a tablet coater until a dry weight of 90 mg/core is achieved. Next, one 10 mil (0.254 mm) exit passageway is mechanically drilled through the semipermeable wall to connect the drug layer with the exterior of the dosage system. The residual solvent is removed by first drying for 120 hours at 50° C. and 30% relative humidity, then the systems are dried for 2 hours at 50° C. to remove excess moisture. The drug dosage form produced by this process provides: ˜90 wt % 1-{[(α-isobutanoyloxyethoxy)carbonyl]aminomethyl}-1-cyclohexane acetic acid, 4 wt % hydroxypropylmethylcellulose of 11,200 molecular weight, 4 wt % polyethylene oxide of 5,000,000 molecular weight and 1 wt % magnesium stearate in the drug layer. The push composition comprises 63.7 wt % polyethylene oxide of 7,500,000 molecular weight, 30 wt % sodium chloride, 5 wt % hydroxypropylmethylcellulose of 11,200 molecular weight, 1 wt % red ferric oxide, 0.25 wt % magnesium stearate, and 0.075 wt % of butylated hydroxytoluene. The wall comprises 100 wt % cellulose acetate comprising a ˜40% acetyl content. […]

Work on `CC(OC(=O)NCC1(CC(=O)O)CCCCC1)OC(=O)C(C)C` (stereo not drawn) [1-{[(α-isobutanoyloxyethoxy)carbonyl]aminomethyl}-1-cyclohexane acetic acid] yielded a release rate of over 20 mg/h.
